Test results: US10780074B2, “Compounds and uses thereof” (Sunovion Pharmaceuticals Inc., priority 2017, dated 2020)
Structures can show the parent of a compound that is named as a salt.

Tested on: behaviors of compound-treated mice
Test: Neuropharmacological Assay (SmartCube)
Format: in vivo
Settings: for minimal effective dose: Mus musculus, ip, 0.25 h, dose having 50% or more total activity in SmartCube, i.p., read-out: MED (minimal effective dose); for AD: ADHD (probability that activity matches class) / AG: analgesic (probability that activity matches class) / AX: anxiolytic (probability that activity matches class) / CE: cognitive enhancer (probability that activity matches class) / DP: anti-depressant (probability that activity matches class) / MS: mood stabilizer (probability that activity matches class) / PS: anti-psychotic (probability that activity matches class) / SD: sedative hypnotic (probability that activity matches class) / UN: uncharacterized CNS activity (probability that activity matches class): i.p. 15 min before behavioral test, most efficacious dose(s) of 3 doses
Procedure, shortened: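 Mice dosed i.p. 15 min before testing, with compound in N-methyl-2-pyrrolidone/PEG/propylene glycol, were video-recorded and algorithmically compared with reference-drug behavioral signatures. This gave class-match probabilities (antidepressant, anxiolytic, etc.) at the most efficacious of 3 doses. MED was defined as the dose with ≥50% total activity, usually tested across 0.3–30 mpk.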

For `NC[C@H]1OCCc2c(-c3cnoc3)cccc21` (single isomer, unassigned) [Compound 87, hydrochloride salt], the minimal effective dose was at most 3 mg/kg, the “AD: ADHD (probability that activity matches class)” value (“AD: ADHD” below) was “++ (5% ≤ ++ <25%)” and the “AG: analgesic (probability that activity matches class)” value (“AG: analgesic” below) was “+ (LOQ ≤ + <5%)”. For the same compound, the “AX: anxiolytic (probability that activity matches class)” value (“AX: anxiolytic” for short) was “++++ (50% ≤ ++++)”, the “CE: cognitive enhancer (probability that activity matches class)” value (shortened to “CE: cognitive enhancer”) was “+ (LOQ ≤ + <5%)” and the “DP: anti-depressant (probability that activity matches class)” value (“DP: anti-depressant” below) was “++++ (50% ≤ ++++)”. For the same compound, the “MS: mood stabilizer (probability that activity matches class)” value (shortened to “MS: mood stabilizer”) was “+ (LOQ ≤ + <5%)”, the “PS: anti-psychotic (probability that activity matches class)” value (“PS: anti-psychotic” for short) was “+ (LOQ ≤ + <5%)” and the “SD: sedative hypnotic (probability that activity matches class)” value (shortened to “SD: sedative hypnotic”) was “+ (LOQ ≤ + <5%)”. The “UN: uncharacterized CNS activity (probability that activity matches class)” value (shortened to “UN: uncharacterized CNS activity”) was “+ (LOQ ≤ + <5%)”.
In the case of `NC[C@@H]1OCCc2c(-c3ccon3)cccc21` (single isomer, unassigned) [Compound 88, hydrochloride salt], the minimal effective dose is reported as 10 to 30 mg/kg, the “AD: ADHD” value is reported as “+ (LOQ ≤ + <5%)” and the “AG: analgesic” value is reported as “+ (LOQ ≤ + <5%)”. The “AX: anxiolytic” value was “++ (5% ≤ ++ <25%)”, the “CE: cognitive enhancer” value was “+ (LOQ ≤ + <5%)” and the “DP: anti-depressant” value was “++ (5% ≤ ++ <25%)”. The “MS: mood stabilizer” value was “+ (LOQ ≤ + <5%)”, the “PS: anti-psychotic” value was “+ (LOQ ≤ + <5%)” and the “SD: sedative hypnotic” value was “+ (LOQ ≤ + <5%)”. For the same compound, the “UN: uncharacterized CNS activity” value was “+ (LOQ ≤ + <5%)”.
In the case of `NC[C@H]1OCCc2c(-c3ccon3)cccc21` (single isomer, unassigned) [Compound 89, hydrochloride salt], the minimal effective dose is reported as at most 3 mg/kg, the “AD: ADHD” value is reported as “++ (5% ≤ ++ <25%)” and the “AG: analgesic” value is reported as “++ (5% ≤ ++ <25%)”. For the same compound, the “AX: anxiolytic” value was “+++ (25% ≤ +++ <50%)”, the “CE: cognitive enhancer” value was “+ (LOQ ≤ + <5%)” and the “DP: anti-depressant” value was “++++ (50% ≤ ++++)”. For the same compound, the “MS: mood stabilizer” value was “+ (LOQ ≤ + <5%)”, the “PS: anti-psychotic” value was “++ (5% ≤ ++ <25%)” and the “SD: sedative hypnotic” value was “+ (LOQ ≤ + <5%)”. The “UN: uncharacterized CNS activity” value was “++ (5% ≤ ++ <25%)”.
With `CNC[C@@H]1OCCc2c(-c3ccon3)cccc21` (single isomer, unassigned) [Compound 90, hydrochloride salt] the minimal effective dose was 10 to 30 mg/kg, the “AD: ADHD” value was “+ (LOQ ≤ + <5%)” and the “AG: analgesic” value was “+ (LOQ ≤ + <5%)”. For the same compound, the “AX: anxiolytic” value was “++ (5% ≤ ++ <25%)”, the “CE: cognitive enhancer” value was “+ (LOQ ≤ + <5%)” and the “DP: anti-depressant” value was “+ (LOQ ≤ + <5%)”. For the same compound, the “MS: mood stabilizer” value was “+ (LOQ ≤ + <5%)”, the “PS: anti-psychotic” value was “+ (LOQ ≤ + <5%)” and the “SD: sedative hypnotic” value was “+ (LOQ ≤ + <5%)”. For the same compound, the “UN: uncharacterized CNS activity” value was “+ (LOQ ≤ + <5%)”.
`CNC[C@H]1OCCc2c(-c3ccon3)cccc21` (single isomer, unassigned) [Compound 91, hydrochloride salt] was tested, and the minimal effective dose was at most 3 mg/kg, the “AD: ADHD” value was “++++ (50% ≤ ++++)” and the “AG: analgesic” value was “+ (LOQ ≤ + <5%)”. For the same compound, the “AX: anxiolytic” value was “++ (5% ≤ ++ <25%)”, the “CE: cognitive enhancer” value was “+ (LOQ ≤ + <5%)” and the “DP: anti-depressant” value was “++++ (50% ≤ ++++)”. The “MS: mood stabilizer” value was “+ (LOQ ≤ + <5%)”, the “PS: anti-psychotic” value was “+ (LOQ ≤ + <5%)” and the “SD: sedative hypnotic” value was “++ (5% ≤ ++ <25%)”. For the same compound, the “UN: uncharacterized CNS activity” value was “+++ (25% ≤ +++ <50%)”.
`NC[C@@H]1OCCc2c(-c3ccno3)cccc21` (single isomer, unassigned) [Compound 92, hydrochloride salt] was tested, and the minimal effective dose was at most 3 mg/kg, the “AD: ADHD” value was “++ (5% ≤ ++ <25%)” and the “AG: analgesic” value was “+ (LOQ ≤ + <5%)”. For the same compound, the “AX: anxiolytic” value was “++ (5% ≤ ++ <25%)”, the “CE: cognitive enhancer” value was “+ (LOQ ≤ + <5%)” and the “DP: anti-depressant” value was “++ (5% ≤ ++ <25%)”. For the same compound, the “MS: mood stabilizer” value was “+ (LOQ ≤ + <5%)”, the “PS: anti-psychotic” value was “+ (LOQ ≤ + <5%)” and the “SD: sedative hypnotic” value was “++ (5% ≤ ++ <25%)”. The “UN: uncharacterized CNS activity” value was “+++ (25% ≤ +++ <50%)”.
`NC[C@H]1OCCc2c(-c3ccno3)cccc21` (single isomer, unassigned) [Compound 93, hydrochloride salt] was tested, and the minimal effective dose was 10 to 30 mg/kg, the “AD: ADHD” value was “+ (LOQ ≤ + <5%)” and the “AG: analgesic” value was “+ (LOQ ≤ + <5%)”. For the same compound, the “AX: anxiolytic” value was “+ (LOQ ≤ + <5%)”, the “CE: cognitive enhancer” value was “+ (LOQ ≤ + <5%)” and the “DP: anti-depressant” value was “+ (LOQ ≤ + <5%)”. For the same compound, the “MS: mood stabilizer” value was “+ (LOQ ≤ + <5%)”, the “PS: anti-psychotic” value was “+ (LOQ ≤ + <5%)” and the “SD: sedative hypnotic” value was “+ (LOQ ≤ + <5%)”. For the same compound, the “UN: uncharacterized CNS activity” value was “+ (LOQ ≤ + <5%)”.
`CNC[C@H]1OCCc2c(-c3cnco3)cccc21` (single isomer, unassigned) [Compound 97, hydrochloride salt] was tested, and the minimal effective dose was at most 3 mg/kg, the “AD: ADHD” value was “+ (LOQ ≤ + <5%)” and the “AG: analgesic” value was “++ (5% ≤ ++ <25%)”. For the same compound, the “AX: anxiolytic” value was “++ (5% ≤ ++ <25%)”, the “CE: cognitive enhancer” value was “+ (LOQ ≤ + <5%)” and the “DP: anti-depressant” value was “++ (5% ≤ ++ <25%)”. For the same compound, the “MS: mood stabilizer” value was “+ (LOQ ≤ + <5%)”, the “PS: anti-psychotic” value was “++ (5% ≤ ++ <25%)” and the “SD: sedative hypnotic” value was “++++ (50% ≤ ++++)”. The “UN: uncharacterized CNS activity” value was “++ (5% ≤ ++ <25%)”.
With `NC[C@@H]1OCCc2c(-c3cnco3)cccc21` (single isomer, unassigned) [Compound 98, hydrochloride salt] the minimal effective dose was at most 3 mg/kg, the “AD: ADHD” value was “++ (5% ≤ ++ <25%)” and the “AG: analgesic” value was “+ (LOQ ≤ + <5%)”. The “AX: anxiolytic” value was “++ (5% ≤ ++ <25%)”, the “CE: cognitive enhancer” value was “+ (LOQ ≤ + <5%)” and the “DP: anti-depressant” value was “++++ (50% ≤ ++++)”. The “MS: mood stabilizer” value was “+ (LOQ ≤ + <5%)”, the “PS: anti-psychotic” value was “+ (LOQ ≤ + <5%)” and the “SD: sedative hypnotic” value was “+ (LOQ ≤ + <5%)”. The “UN: uncharacterized CNS activity” value was “+ (LOQ ≤ + <5%)”.
`NC[C@H]1OCCc2c(-c3cnco3)cccc21` (single isomer, unassigned) [Compound 99, hydrochloride salt] was tested, and the minimal effective dose was at most 3 mg/kg, the “AD: ADHD” value was “+ (LOQ ≤ + <5%)” and the “AG: analgesic” value was “++ (5% ≤ ++ <25%)”. For the same compound, the “AX: anxiolytic” value was “++ (5% ≤ ++ <25%)”, the “CE: cognitive enhancer” value was “++ (5% ≤ ++ <25%)” and the “DP: anti-depressant” value was “+ (LOQ ≤ + <5%)”. For the same compound, the “MS: mood stabilizer” value was “+ (LOQ ≤ + <5%)”, the “PS: anti-psychotic” value was “+ (LOQ ≤ + <5%)” and the “SD: sedative hypnotic” value was “++ (5% ≤ ++ <25%)”. The “UN: uncharacterized CNS activity” value was “+++ (25% ≤ +++ <50%)”.
In the case of `NC[C@@H]1OCCc2c(-c3ncc[nH]3)cccc21` (single isomer, unassigned) [Compound 108, hydrochloride salt], the minimal effective dose is reported as 10 to 30 mg/kg, the “AD: ADHD” value is reported as “+ (LOQ ≤ + <5%)” and the “AG: analgesic” value is reported as “++ (5% ≤ ++ <25%)”. The “AX: anxiolytic” value was “++ (5% ≤ ++ <25%)”, the “CE: cognitive enhancer” value was “+ (LOQ ≤ + <5%)” and the “DP: anti-depressant” value was “++ (5% ≤ ++ <25%)”. For the same compound, the “MS: mood stabilizer” value was “+ (LOQ ≤ + <5%)”, the “PS: anti-psychotic” value was “++ (5% ≤ ++ <25%)” and the “SD: sedative hypnotic” value was “++ (5% ≤ ++ <25%)”. For the same compound, the “UN: uncharacterized CNS activity” value was “+++ (25% ≤ +++ <50%)”.
